Chromatographic logP and LogP data for 36 molecules are collected here from patent publication US12673942B2, “Azabicyclyl-substituted heterocycles as fungicides” (Bayer Aktiengesellschaft, priority 2020, dated 2026).

The nature of this series: Measurement of Log P values by HPLC on reversed phase columns (EEC directive 79/831 Annex V.A8). It counts as physicochemical. The protocol:
Measurement of Log P values as provided herein was performed according to EEC directive 79/831 Annex V.A8 by HPLC (High Performance Liquid Chromatography) on reversed phase columns with the following methods: • ^[a] Log P value is determined by measurement of LC-UV, in an acidic range, with 0.1% formic acid in water and acetonitrile as eluent (linear gradient from 10% acetonitrile to 95% acetonitrile). • ^[b] Log P value is determined by measurement of LC-UV, in a neutral range, with 0.001 molar ammonium acetate solution in water and acetonitrile as eluent (linear gradient from 10% acetonitrile to 95% acetonitrile). • ^[c] Log P value is determined by measurement of LC-UV, in an acidic range, with 0.1% phosphoric acid and acetonitrile as eluent (linear gradient from 10% acetonitrile to 95% acetonitrile).
If more than one Log P value is available within the same method, all the values are given and separated by “+”. […]

The mark [1] stands for this setting: method [a]: LC-UV, acidic range, 0.1% formic acid in water and acetonitrile as eluent.

In general, chromatographic logP refers to lipophilicity estimated from chromatographic retention. The low end stands for lower lipophilicity, the high end for higher lipophilicity. As for `Cc1ccc(CC(CON2C(=O)c3ccccc3C2=O)NC(=O)c2c(Oc3cccc(Cl)c3)nnc3ccccc23)c(C)c1` (racemic) [Compound 3-01, 3-(3-chlorophenoxy)-N-{(2RS)-1-(2,4-dimethylphenyl)-3-[(1,3-dioxo-1,3-dihydro-2H-isoindol-2-yl)oxy]propan-2-yl}cinnoline-4-carboxamide], under setting [1], the chromatographic logP was found to be 4.49.

Take `Cc1ccc(C[C@H](CON2C(=O)c3ccccc3C2=O)NC(=O)c2c(Oc3cccc(C(F)(F)F)c3)cnc3ccccc23)c(C)c1` (racemic) [Compound 3-02]: under setting [1], the chromatographic logP is 4.72.

In turn, `C#Cc1cccc(Oc2cnc3ccccc3c2C(=O)N[C@@H](CON2C(=O)c3ccccc3C2=O)Cc2ccc(C)cc2C)c1` (racemic) [Compound 3-03] showed a chromatographic logP under setting [1] of 4.44.

On to `Cc1ccc(C[C@H](CON2C(=O)c3ccccc3C2=O)NC(=O)c2c(Oc3cccc(C4CC4)c3F)cnc3ccccc23)c(C)c1` (racemic) [Compound 3-04], for which, under setting [1], the chromatographic logP was determined as 4.96.

For the molecule `C=Cc1cccc(Oc2cnc3ccccc3c2C(=O)N[C@@H](CON2C(=O)c3ccccc3C2=O)Cc2ccc(C)cc2C)c1` (racemic) [Compound 3-05], the chromatographic logP under setting [1] was 4.78. This chromatographic logP and that of the molecule before are within 0.2 log units of each other.

Take `Cc1ccc(C[C@H](CON2C(=O)c3ccccc3C2=O)NC(=O)c2c(Oc3cccc(Br)c3F)cnc3ccccc23)c(C)c1` (racemic) [Compound 3-06]: under setting [1], the chromatographic logP was found to be 4.78.

The molecule `C#Cc1cccc(Oc2cnc3ccccc3c2C(=O)N[C@@H](CON2C(=O)c3ccccc3C2=O)Cc2ccc(C)cc2Cl)c1` (racemic) [Compound 3-07] registered a chromatographic logP under setting [1] of 4.47.

Molecule `C=Cc1cccc(Oc2cnc3ccccc3c2C(=O)N[C@@H](CON2C(=O)c3ccccc3C2=O)Cc2ccc(C)cc2Cl)c1` (racemic) [Compound 3-08] showed a chromatographic logP under setting [1] of 4.71.

As for `Cc1ccc(C[C@H](CON2C(=O)c3ccccc3C2=O)NC(=O)c2c(Oc3cccc(C(F)(F)F)c3)nnc3c2CCCC3)c(C)c1` (racemic) [Compound 3-09], the chromatographic logP under setting [1] turned out to be 4.59.

In the case of `Cc1ccc(C[C@H](CON2C(=O)c3ccccc3C2=O)NC(=O)c2c(Oc3cccc(Cl)c3F)nnc3c2CCCC3)c(C)c1` (racemic) [Compound 3-10], the chromatographic logP under setting [1] came to 4.47.

On to `Cc1ccc(C[C@H](CON2C(=O)c3ccccc3C2=O)NC(=O)c2c(Oc3cccc(Br)c3F)nnc3c2CCCC3)c(C)c1` (racemic) [Compound 3-11], for which the chromatographic logP under setting [1] is 4.51.

In turn, `Cc1ccc(C[C@H](CON2C(=O)c3ccccc3C2=O)NC(=O)c2c(Oc3cccc(C(F)(F)F)c3)nnc3c2CCC3)c(C)c1` (racemic) [Compound 3-12] had a chromatographic logP under setting [1] of 4.47.

In turn, `Cc1ccc(C[C@H](CON2C(=O)c3ccccc3C2=O)NC(=O)c2c(Oc3cccc(C(F)F)c3)nnc3c2CCCC3)c(C)c1` (racemic) [Compound 3-13] came in with a chromatographic logP under setting [1] of 4.13.

Turning to `Cc1ccc(C[C@H](CON2C(=O)c3ccccc3C2=O)NC(=O)c2c(Oc3cccc(C4CC4)c3F)nnc3c2CCC3)c(C)c1` (racemic) [Compound 3-14], the chromatographic logP under setting [1] was found to be 4.56.

In general, LogP refers to the decadic logarithm of the partition coefficient of the neutral form, usually between octanol and water. Under setting [1], `Cc1ccc(C[C@@H](CON)NC(=O)c2c(Oc3cccc(C(F)(F)F)c3)nnc3cc(C)ccc23)c(C)c1` (racemic) [Compound 4-01] gave a LogP of 3.51 and a chromatographic logP of 3.42. Where the note is “method [b]: LC-UV, neutral range, 0.001 molar ammonium acetate solution in water and acetonitrile as eluent”, the chromatographic logP turned out to be 3.62.

Take `Cc1ccc(C[C@H](CON)NC(=O)c2c(Oc3cccc(C(F)(F)F)c3)cnc3ccccc23)c(C)c1` (racemic) [Compound 4-02]: the chromatographic logP under setting [1] turned out to be 3.17.

The molecule `Cc1ccc(CC(CON)NC(=O)c2c(Oc3cccc(Cl)c3)nnc3ccccc23)c(C)c1` (racemic) [Compound 4-03, N-[(2RS)-1-(aminooxy)-3-(2,4-dimethylphenyl)propan-2-yl]-3-(3-chloro-phenoxy)cinnoline-4-carboxamide] displayed a chromatographic logP under setting [1] of 2.8.

In the case of `C#Cc1cccc(Oc2cnc3ccccc3c2C(=O)N[C@@H](CON)Cc2ccc(C)cc2C)c1` (racemic) [Compound 4-04], the chromatographic logP under setting [1] amounted to 2.83.

Molecule `Cc1ccc(C[C@H](CON)NC(=O)c2c(Oc3cccc(C4CC4)c3F)cnc3ccccc23)c(C)c1` (racemic) [Compound 4-05] displayed a chromatographic logP under setting [1] of 3.31.

As for `C=Cc1cccc(Oc2cnc3ccccc3c2C(=O)N[C@@H](CON)Cc2ccc(C)cc2C)c1` (racemic) [Compound 4-06], the chromatographic logP under setting [1] was found to be 3.09.

For the molecule `Cc1ccc(C[C@H](CON)NC(=O)c2c(Oc3cccc(Br)c3F)cnc3ccccc23)c(C)c1` (racemic) [Compound 4-07], the chromatographic logP under setting [1] was found to be 3.11.

Under setting [1], `C#Cc1cccc(Oc2cnc3ccccc3c2C(=O)N[C@@H](CON)Cc2ccc(C)cc2Cl)c1` (racemic) [Compound 4-08] had a chromatographic logP of 2.87.

As for `C=Cc1cccc(Oc2cnc3ccccc3c2C(=O)N[C@@H](CON)Cc2ccc(C)cc2Cl)c1` (racemic) [Compound 4-09], the chromatographic logP under setting [1] was determined as 3.12.

In the case of `Cc1ccc(C[C@H](CON)NC(=O)c2c(Oc3cccc(C(F)(F)F)c3)nnc3c2CCCC3)c(C)c1` (racemic) [Compound 4-10], under setting [1], the chromatographic logP came out at 2.91.

For the molecule `Cc1ccc(C[C@H](CON)NC(=O)c2c(Oc3cccc(Cl)c3F)nnc3c2CCCC3)c(C)c1` (racemic) [Compound 4-11], the chromatographic logP under setting [1] was 2.7.

Under setting [1], `Cc1ccc(C[C@H](CON)NC(=O)c2c(Oc3cccc(Br)c3F)nnc3c2CCCC3)c(C)c1` (racemic) [Compound 4-12] came in with a chromatographic logP of 2.75.

Molecule `Cc1ccc(C[C@H](CON)NC(=O)c2c(Oc3cccc(C(F)(F)F)c3)nnc3c2CCC3)c(C)c1` (racemic) [Compound 4-13] came in with a chromatographic logP under setting [1] of 2.78. The chromatographic logP values of the last two molecules are within 0.2 log units of each other.

For `Cc1ccc(C[C@H](CON)NC(=O)c2c(Oc3cccc(C(F)F)c3)nnc3c2CCCC3)c(C)c1` (racemic) [Compound 4-14], the chromatographic logP under setting [1] is 2.55.

As for `Cc1ccc(C[C@H](CON)NC(=O)c2c(Oc3cccc(C4CC4)c3F)nnc3c2CCC3)c(C)c1` (racemic) [Compound 4-15], the chromatographic logP under setting [1] is 2.83.

The molecule `Cc1ccc(C[C@@H]2CON=C(c3c(Br)cnc4nccnc34)N2)c(C)c1` (racemic) [Compound 7-01] had a chromatographic logP under setting [1] of 2.41.

In the case of `Cc1ccc(C[C@H](N)CCl)c(C)c1` (racemic) [Compound 9-02], the chromatographic logP under setting [1] is 1.24.

Molecule `N[C@H](CCl)Cc1ccc(Br)cc1Cl` (racemic) [Compound 9-03] registered a chromatographic logP under setting [1] of 1.37.

Turning to `Cc1ccc(CC(CCl)NC(=O)c2c(Oc3cccc(C4CC4)c3F)nnc3ccccc23)c(C)c1` (racemic) [Compound 10-01, N-[(2RS)-1-chloro-3-(2,4-dimethylphenyl)propan-2-yl]-3-(3-cyclopropyl-2-fluorophenoxy)cinnoline-4-carboxamide], the chromatographic logP under setting [1] was 4.73.

For `Cc1ccc(CC(CCl)NC(=O)c2c(Oc3cccc(C(F)(F)F)c3)cnc3ccccc23)c(C)c1` (racemic) [Compound 10-02, N-[(2RS)-1-chloro-3-(2,4-dimethylphenyl)propan-2-yl]-3-[3-(trifluoro-methyl)phenoxy]quinoline-4-carboxamide], the chromatographic logP under setting [1] is 4.81. The chromatographic logP values of the last two molecules are within 0.2 log units of each other.

In turn, `Cc1ccc(C[C@H](CCl)NC(=O)c2c(Oc3cccc(C4CC4)c3F)cnc3ccccc23)c(Cl)c1` (racemic) [Compound 10-03] yielded a chromatographic logP under setting [1] of 5. This chromatographic logP and that of the molecule before are within 0.2 log units of each other.

Under setting [1], `Cc1ccc(C[C@H](CCl)NC(=O)c2c(Oc3cccc(Br)c3F)cnc3ccccc23)c(Cl)c1` (racemic) [Compound 10-04] showed a chromatographic logP of 4.7.
